Test results published in a melting point compilation (Tetko et al.).

melting point [°C]	SMILES
119 to 120	Cc1noc(N)c1C
238 to 240	O=S1(=O)Cc2cccc3cccc(c23)C1
115	O=C(c1cccs1)c1coc(-c2ccc(Cl)cc2)c1S(=O)(=O)c1ccccc1
36	COc1ccc(C(F)(F)F)cc1CBr
138	O=C(c1ccco1)c1noc(-c2ccc([N+](=O)[O-])cc2)c1S(=O)(=O)c1ccccc1
124 to 127	CC(=O)N1CCc2cc(Br)ccc21
160	Cc1ccc(C(=O)/C=C/c2ccc(-c3cccc([N+](=O)[O-])c3)o2)o1
106	O=C(O)c1cc(F)c(F)cc1Cl
270	O=C(c1cc(O)c(O)c(O)c1)c1ccc(O)c(O)c1O
12.8	c1cc2c3c(c1)CCC3CCC2 (stereo not drawn)
210	O=c1c2ccccc2nc2n1CCC2O (stereo not drawn)
180	Clc1cc(Cl)c2cc(Cl)cc(Cl)c2c1
185 to 187	COc1ccc(NC(=O)C(C(F)(F)F)C(F)(F)F)cc1
-96	CC(C)(C)C1CCCC1
232	CC12CCCC1C1CCC(CCC(=O)O)C(C)(CCC(=O)O)C1CC2 (stereo not drawn)
117	Cc1cccc2c1C(=O)OC2O (stereo not drawn)
191 to 194	COc1ccc(C(=O)O)cc1[N+](=O)[O-]
75	CCCCCCCCCCCCCCCCCCCCCCCCCCCCCCCCCCC
144	CC(=O)NCCc1ccccc1NC(C)=O
87 to 89	COC(=O)C1=C(N)CCN(Cc2ccccc2)C1
273 to 275	O=C1c2ccccc2C(=O)c2c([N+](=O)[O-])ccc(O)c21
155 to 160	COC(=O)C(=Cc1ccc(O)cc1)C(=O)OC
-55	C[Si](C)(C)Oc1ccccc1

melting point [°C]	SMILES
108	CC(C)(C)NSc1nc2ccccc2s1
58 to 63	OCc1ccc2nsnc2c1
39	O=C1CCC(F)(F)CC1
20	C=C(C)CCCCCCCCCCCCCCCCC
208	COc1ccccc1-c1nnc2n1NC(c1ccccc1)S2 (stereo not drawn)
152 to 153	CN(C)c1ccc(/C=C2\C(=O)C3CCC(C)(C2=O)C3(C)C)cc1 (stereo not drawn)
84	Oc1ccc2ccccc2c1Br
62 to 66	COC(=O)c1sccc1S(=O)(=O)Cl
92 to 94	Cc1cc(Br)cnc1N
180	O=C(O)c1nc(O)n(-c2ccccc2)n1
49 to 50	ClCc1csc(-c2ccccc2)n1
150	CC1=C(c2ccccc2)C(=O)N(C(C)(C)c2cc(Cl)cc(Cl)c2)CO1
115	C=C1C2CC(C(=C(c3ccccc3)c3ccccc3)C2c2ccccc2)C1(C)C (stereo not drawn)
-28.3	CCCCCCC(CCCCCC)CCCCCC
41	c1ccc(C2OCCCO2)cc1
79 to 80	CC(C)CCCC(C)C1CCC2C3CCC4CCCCC4(C)C3CCC12C (stereo not drawn)
198 to 201	O=C(C=NO)Nc1ccc(Cl)cc1Cl
-17	CCCCCCCCCCCCl
9	Nc1ccc(Cl)cc1C(F)(F)F
49	O=C(O)Cc1ccc(F)c(F)c1
27	SCc1ccc(Br)cc1
120	O=C1OC=CC(c2ccccc2)Cc2ccccc21 (stereo not drawn)
80	Nc1c(C=O)cnn1-c1ccc(Cl)cc1

melting point [°C]	SMILES
30	O=S(=O)(Cl)c1ccccc1F
68 to 69	Cn1cnc(C=O)c1
114	OC(CCN1CCCCC1)(c1ccccc1)C1CC2C=CC1C2 (stereo not drawn)
186	CC(Cc1ccc(O)c(O)c1)C(C)Cc1ccc(O)c(O)c1 (stereo not drawn)
221	CC1(C)OC(=O)C(=Cc2ccc(-c3ccc([N+](=O)[O-])cc3)o2)C(=O)O1
188 to 189	Cc1nc(NC(=O)NS(=O)(=O)c2cccs2)nc(C)c1C
178 to 182	O=C1C=C(Nc2ccccc2)CCC1
122	O=[N+]([O-])c1ccc(O)cc1O
56	OCCCCCCC(F)(F)C(F)(F)C(F)(F)C(F)(F)C(F)(F)C(F)(F)C(F)(F)C(F)(F)F
-22	CC(CC1CCCCC1)C1CCCCC1 (stereo not drawn)
99.5 to 102	N#CCCn1ccnc1-c1ccccc1
93	COc1cc(C)cc2c1C(=O)C2
19	CCOC(=O)Cc1ccncc1
277 to 279	FC(F)(F)c1ccc2[nH]c(S)nc2c1
63	O=Cc1ccc(Cl)c([N+](=O)[O-])c1
224	CCOC(=O)Cn1nc(-c2ccccc2)c2ccccc2c1=O
-40	Ic1cccs1
45 to 50	COC(=O)c1ccc(CO)cc1
160 to 166	N[C@H](CO)[C@H](O)c1ccc([N+](=O)[O-])cc1
-8	c1ccnnc1
151 to 153	CC(=O)Nc1cc(C)ccc1O
261	Cn1c(=O)c(C2=NNC(=O)C2=Cc2cccc([N+](=O)[O-])c2)c(O)c2ccccc21
133 to 138	CS(=O)(=O)c1ccccc1S(=O)(=O)Cl

melting point [°C]	SMILES
-7	O=c1cccccc1
97	Nc1ncc(Cl)cc1I
139	CCn1nc(C)cc1C(=O)O
113 to 114	CC(=NO)c1cccs1
89 to 90	O=S(=O)(Cl)c1ccc(Oc2ccccc2Cl)cc1
104	CCC(=O)Oc1ccc(C(CC)=C(CC)c2ccc(OC(=O)CC)cc2)cc1
-78	CN=NC
217 to 218	NN=C(/C(=N/N)c1ccccc1)c1cccc2ccccc12
266 to 267	O=C1C(=C2C=Cc3ccc(O)cc3N2)C(=O)c2ccccc21
250 to 252	O=C(Nc1c[nH]c(=O)[nH]c1=O)C(F)(F)C(F)(F)C(F)(F)C(F)(F)C(F)(F)C(F)(F)C(F)(F)C(F)(F)F
185 to 187	CC(C)(C)OC(=O)NC1(C(=O)O)CCc2ccccc2C1 (stereo not drawn)
185	O=C(C1=NOC2C(=O)N(c3cc(Cl)ccc3Cl)C(=O)C12)c1ccccc1 (stereo not drawn)
129	CCCCOc1ccc(N=Nc2ccc(N)nc2N)cn1
155	CCC(Cc1c(I)cc(I)c(N)c1I)C(=O)O (stereo not drawn)
116	N#CCC(=O)c1ccc(Cl)c(Cl)c1
165 to 168	COc1ccc(C(N)=O)c(Cl)c1OC
162	c1ccc(-c2nc3ccccc3nc2-c2ccc3c4c(cccc24)CC3)cc1
181	O=Cc1c(F)cc(O)cc1F
130	CCC(COCCOc1c(I)cc(I)c(NC(C)=O)c1I)C(=O)O (stereo not drawn)
266	O=[N+]([O-])c1ccc2c(O)c(-c3cccc(-c4[nH]c5cc([N+](=O)[O-])ccc5c4O)c3)[nH]c2c1
156	O=C(N[C@@H](Cc1cccc(F)c1)C(=O)O)OCC1c2ccccc2-c2ccccc21
95	Cc1ccc2c(c1Cc1ccccc1)CCC1C2CCC2CCCCC21C (stereo not drawn)
137	O=C1c2ccccc2S(=O)(=O)N1CCCCN1CCN(c2ncccn2)CC1

melting point [°C]	SMILES
320 to 322	O=C1c2ccccc2C(=O)c2c1cc1ccccc1c2O
-122	CCCOCCC
235	O=C1C(=Cc2ccccc2)N=C(N2CCOCC2)N1c1ccccc1
70 to 73	CCOC(=O)c1ccc(Oc2ccc(C)nn2)cc1
88.5	CC1(C)C=CC=C(C(=O)O)C=C1
96 to 98	COc1ccccc1-c1ccc(C=CC(=O)c2ccco2)o1
94 to 97	CCCCc1nc(CO)c[nH]1
186 to 188	Cc1ccc(NC(N)=S)cc1
119	CCCOC(=O)C1=C(C)NC(C)=C(C(=O)OCCC)C1c1ccccc1
52	CN(C)c1cccc2c(S(=O)(=O)F)cccc12
124	O=C(NC(Cc1c[nH]c2ccccc12)C(=O)O)OCc1ccccc1 (stereo not drawn)
28 to 30	CC(=CC(=O)O)C(F)(F)F
131 to 132	CCOC(=O)c1c(-c2ccccc2)csc1NC(=O)c1ccccc1Cl
182 to 184	Cc1cc(C(F)(F)F)c2c(N)c(C#N)sc2n1
80 to 85	OC1(Cc2ccccc2)CCNCC1
183 to 184	COc1ccc2c(c1)CC1(CCC(O)(c3ccc(C(C)(C)C)cc3)CC1)C2=O (stereo not drawn)
101 to 103	Cc1nc(-c2cccc(N)c2)cs1
38	N#Cc1ccc(C(F)(F)F)cc1
206	CCOc1n[nH]c(=O)c(Br)c1Br
166	O=C1/C(=C/c2ccccc2O)SC(=S)N1CN1CCCCC1
96	O=Cc1cccc2ncccc12

SMILES	melting point [°C]
CC(=O)OC1CCC2C3CCC4CC=CCC4(C)C3CCC12C (stereo not drawn)	93 to 94
CCOC(=O)C1C(=N)Oc2c(c(=O)oc3ccccc23)C1c1ccc(Br)cc1 (stereo not drawn)	192
C#CCN1C(=O)CN=C(c2ccccc2)c2cc(Cl)ccc21	141
O=S(=O)(c1ccc(Cl)cc1)c1cc(Cl)c(Cl)cc1Cl	147
O=[N+]([O-])CC(O)C(Cl)(Cl)Cl (stereo not drawn)	45.5
CC(C)Nc1nc(Cl)nc(NC(C)C)n1	213
CC(COc1ccc(Oc2ccccc2)cc1)Oc1ccccn1 (stereo not drawn)	49
O=P1(NCCCl)OCCCN1CCCl (stereo not drawn)	43.4
COc1c(F)cc(CBr)cc1F	41
CCCCc1ccc(O)cc1	22
CC(Cc1ccccc1)NC(C#N)c1ccccc1 (stereo not drawn)	85
Cc1[nH]c(=O)n(C(C)(C)C)c(=O)c1Cl	176
Nc1c(Br)cc([N+](=O)[O-])cc1Br	207
Cc1ccc(S(=O)(=O)N(C)N=O)cc1	60
CC(=NO)C(=O)c1ccccc1	114
